Earlier results in patent publication US20160128912A1, “Personal Care Compositions and Hangers” (The Procter & Gamble Company, priority 2014, published 2016).

Structure (SMILES) | Log (water Solubility in mol/L)
C=CCCCCCCCCC(=O)O [Undecylenic Acid] | −3.15
CCCCCCC(O)CO (centres unmarked) [caprylyl glycol] | −3.08
C/C=C/C=C/C(=O)O [sorbic acid] | −0.33

Second part, the molecule after the results:

Log (water Solubility in mol/L) | Structure (SMILES)
−1.41 | O=C(O)c1ccccc1O [Salicylic acid, reference compound]
−2.46 | Oc1cc(Cl)ccc1Oc1ccc(Cl)cc1Cl [Triclosan, reference compound]
−0.47 | OCc1ccccc1 [benzyl Alcohol]
−1.91 | CCOC(=O)c1ccc(O)cc1 [ethyl paraben]
−0.83 | OCCc1ccccc1 [phenethyl alcohol]
